Measurements taken from paper PMC8070394, “Determination of Colistin in Contents Derived from Gastrointestinal Tract of Feeding Treated Piglet and Broiler” (Antibiotics, 2021).

How the values were obtained:
[1] = pigs, single oral administration, cited from earlier work
Source text: Nutrients and drugs are known to be mainly absorbed in the small intestine of animals and humans after oral administration. The dosing regimen of colistin in clinical use depends upon the pharmacokinetics and pharmacodynamics of colistin in humans. Meanwhile, the absorption of oral drugs in the digestive tract is crucial for the dosing regimen as well. Unlike for human medicine, a few studies have been conducted in animals to evaluate the pharmacokinetics and pharmacodynamics of colistin following oral administration. One study has measured colistin in the whole intestin ...

[2] = Colistin in contents of broiler gastrointestinal segments and feces after feeding treatment (UPLC-MS/MS); type: in vivo, cobb broilers; settings: broilers fed colistin 20 mg/kg body weight for 14 days
Method: (§1) Eight weaned piglets (Duroc × Landrace × Large white) 3~4 weeks of age were used in a 14-day feeding trial. First, all piglets were fed with the base diet (Table S1) for an adapting period of 6 days. Subsequently, four piglets fed the base diet were kept as untreated controls, and the other four piglets were fed the base diet, which was supplemented with colistin sulphate at 20 mg/kg of body weight for 14 consecutive days. Thereafter, feces were collected, and the piglets were slaughtered to obtain contents from the swine gastrointestinal segments, including stomach, duodenum, jejunum and cecum. The sixteen cobb broilers 1–3 days in age were selected and fed with a drug-free balanced diet (Table S2) during the 14-day adaption period and the subsequent treatment period. Then, eight broilers were kept as untreated controls, and the other eight broilers were fed with colistin at 20 mg/kg of body weight for 14 consecutive days. At the end of the trial, treated and untreated animals were sacrificed, and the contents derived from the gizzard, proventriculus, duodenum, jejunum, ileum and cecum were recovered. All samples were stored at −80 °C before being analyzed.
(§2) The extraction procedure was based on the methods developed by Fu with some modifications. Briefly, 2 g of samples was lyophilized to dryness and extracted twice with 10 mL of 10% trichloroacetic acid: acetonitrile (40:60, v/v), and the combined extraction solution was adjusted to pH 9.0. Thereafter, the extraction solution was applied to Oasis WCX SPE cartridges which were prewashed with 3 mL of methanol and 3 mL of water. The cartridges were then rinsed with 3 mL of water, 3 mL of methanol and 3 mL of 5% formic acid in water. Eventually, the colistin was eluted with 5 mL of 20% formic acid in methanol. The eluent was evaporated to dryness by vacuum centrifugation at 50 °C and resuspended in 500 μL of deionized water prior to measurement using an UPLC–MS/MS system.
(§3) Chromatography of colistin was conducted with an UltiMate 3000 UPLC system (Thermo Fisher, San Jose, CA, USA) equipped with an Acquity UPLC BEH C18 column (2.1 mm × 100 mm; 1.7 µm particle size; Waters, Milford, MA, USA). The mobile phase A was 0.2% formic acid, 5% acetonitrile in H2O; B was 100% acetonitrile. The colistin was resolved with a linear gradient starting from 95% A solvent to 70% B solvent over 5 min and then to 5% A at 10 min, at a flow rate of 200 µL/min.
(§4) MS spectra were acquired at positive ionization mode with a hybrid quadrupole-obitrap mass spectrometer (Q Exactive, Thermo Fisher, San Jose, CA, USA). The sheath gas flow rate was 25 mL/min; the auxiliary gas flow rate was 15 mL/min; the spray voltage was 3.2 kV; and the temperature of the capillary tube was set to 320 °C. One microscan was used for data acquisition. The resolution settings were full MS target 70,000 and MS/MS target 17,500; normalized CE 20% and 22% were employed for colistin A and colistin B, respectively. Data manipulations were employed using Xcalibur version 4.0 software. Quantitative analyses were conducted in the selective reaction monitoring (SRM) scan mode. The two most abundant fragment ions were selected from each analyte for analysis (Figure S1). The transitions monitored and approximate chromatographic retention times (tR) were as follows: colistin A ([M + 3H]^3+), m/z 390.60 > 101.0696, 241.1860, tR = 7.30 min; colistin B ([M + 3H]^3+), m/z 385.90 > 101.0696, 227.1710, tR = 6.85 min. The mass tolerance was set to 5 ppm for fragment ions.
(§5) Colistin-treated samples and controls were subject to analysis using the proposed method, including stomach, duodenum, jejunum and cecum content samples and feces samples recovered from 4 treated and 4 untreated piglets; gizzard, proventriculus, duodenum, jejunum, ileum and cecum content samples and feces samples from 8 treated and 8 control cobb broilers. […]

[3] = Colistin in contents of swine gastrointestinal segments and feces after feeding treatment (UPLC-MS/MS); type: in vivo, piglets (Duroc × Landrace × Large white); settings: n = 4
Method: as §1, §2, §3, §4, §5

decrease of the amount of colistin from the cecum to feces [2]: at least 5 fold | estimate of colistin in samples from the cecum, regardless of the moisture ([2]; cecum content, dried weight, mean ± standard deviation, n = 8): 15766.0 ± 9249.2 ng/g | average concentration of colistin, cecum ([2]; cecum content, wet weight, mean, n = 8): 4882.9 ng/g | average concentration of colistin, duodenum ([2]; duodenum content, wet weight, mean, n = 8): 383.7 ng/g | estimate of colistin in samples from feces, regardless of the moisture ([2]; feces, dried weight, mean ± standard deviation, n = 8): 823.4 ± 616.4 ng/g | average concentration of colistin in feces samples ([2]; feces, wet weight, mean, n = 8): 147.7 ng/g | average concentration of colistin, gizzard ([2]; gizzard content, wet weight, mean, n = 8): 1145.7 ng/g | average concentration of colistin, ileum ([2]; ileum content, wet weight, mean, n = 8): 2056.1 ng/g | average concentration of colistin, jejunum ([2]; jejunum content, wet weight, mean, n = 8): 1572.3 ng/g | average concentration of colistin, proventriculus ([2]; proventriculus content, wet weight, mean, n = 8): 448.3 ng/g | average amount of colistin in content recovered from the cecum, based on dried weight ([3]; piglets fed colistin sulphate 20 mg/kg body weight for 14 days, cecum content, dried weight): ~ 3300 ng/g | concentration of colistin in content from the cecum ([3]; piglets fed colistin sulphate 20 mg/kg body weight for 14 days, cecum content, wet weight, UPLC-MS/MS, mean ± standard deviation): 398.3 ± 161.2 ng/g | average concentration of colistin in samples from the duodenum ([3]; piglets fed colistin sulphate 20 mg/kg body weight for 14 days, duodenum content, UPLC-MS/MS): ~ 30 ng/g | average amount of colistin in feces, based on dried weight ([3]; piglets fed colistin sulphate 20 mg/kg body weight for 14 days, feces, dried weight): ~ 3300 ng/g | average concentration of colistin in samples from the jejunum ([3]; piglets fed colistin sulphate 20 mg/kg body weight for 14 days, jejunum content, UPLC-MS/MS): ~ 30 ng/g | average concentration of colistin in feces samples ([3]; piglets fed colistin sulphate 20 mg/kg body weight in diet for 14 consecutive days, feces, wet weight, UPLC-MS/MS, mean): approximately 1248.3 ng/g
Substance: Colistin
peak concentration of colistin in samples from the duodenum to ileum, highest level ([1]; HPLC-Fluorescence after derivatization): ~ 90,000 ng/g | colistin in samples from duodenum to ileum after 4 h ([1]; after 4 h, HPLC-Fluorescence): no colistin was detected
